Common to all, as to type: cell-based
Holding throughout (settings): 21-24 hrs, lowest concentration giving cytokine at least 2× negative control, tested 0.01-30 micromolar

The test system of experiment [1] is IFN-alpha induction in human peripheral blood mononuclear cells (PBMC). The experiment can be described thus: Cytokine induction in human cells (PBMC): IFN-alpha by ELISA. As for the experimental part: (§1) Cytokine Induction in Human Cells
(§2) Whole blood was obtained from healthy human donors and collected by venipuncture into vacutainer tubes or syringes containing EDTA. Human peripheral blood mononuclear cells (PBMC) were purified from the whole blood by density gradient centrifugation. Histopaque 1077 (15 mL, Sigma, St. Louis, Mo.) was transferred to 6×50 mL sterile polypropylene conical tubes. The Histopaque was overlayed with 15-25 mL of blood diluted 1:2 in Hank's Balanced Salts Solution (HBSS) (Gibco, Life Technology, Grand Island N.Y.). The tubes were then centrifuged at 1370 rpm for 30 minutes at 20° C., with no brake (400×g, GH 3.8A Rotor).
(§3) The interface (buffy coat) containing the PBMC was collected and placed in a new sterile 50 mL conical polypropylene centrifuge tube. The PBMC were mixed with an equal volume of HBSS (about 20 mL from the interface and about 20 mL of HBSS), and then centrifuged at 1090 rpm, 10 min, 20° C., with brake (270×g, GH 3.8A Rotor). After completing centrifugation, the cells were resuspended in 2-3 mL ACK Red blood cell lysis buffer (ammonium chloride potassium solution, Gibco, Life Technology) and incubated for 2-5 minutes at 20° C. […]
(§4) The number of viable cells was determined by counting with a Miltenyi FACS instrument (Miltenyi Biotec Inc., San Diego, Calif.) or by using a hemacytometer. […] Ten microliters of the diluted cells were then applied to the hemacytometer, and the number of viable PBMC were determined by microscopy. […]
(§5) IFN-alpha cytokine levels (pg/mL) were measured by ELISA (human IFN-α, pan specific, Mabtech, Cincinnati, Ohio). IFN-gamma and TNF-alpha levels (pg/mL) were measured by multiplex bead assay (magnetic beads, R & D Systems Minneapolis, Minn.) according to the manufacturer's instructions.
(§6) Specifically, the minimum effective concentration of each compound (micromolar) was determined as the lowest concentration of the compound that induced a measured cytokine response at a level ([…]) that was at least 2× greater than that observed with the negative control wells.

For experiment [2], the system named is TNF-alpha induction in human peripheral blood mononuclear cells (PBMC). Nature of the experiment: Cytokine induction in human cells (PBMC): TNF-alpha by multiplex bead assay. The method, then:
as §1, §2, §3, §4, §5, §6

Experiment [3] relates to IFN-gamma induction in human peripheral blood mononuclear cells (PBMC). The experiment can be described thus: Cytokine induction in human cells (PBMC): IFN-gamma by multiplex bead assay. As for the experimental part:
as §1, §2, §3, §4, §5, §6

Turning to `CCCCCCCCCCCCCCCCCC(=O)NCCC[C@@H](COCC)n1cnc2c(N)nc3ccccc3c21` [Example 1, N-[(4S)-4-(4-aminoimidazo[4,5-c]quinolin-1-yl)-5-ethoxy-pentyl]octadecanamide], the “MEC to Induce Cytokine IFN-alpha” value in experiment [1] was ≤0.01 µM. Moreover, the “MEC to Induce Cytokine TNF-alpha” value in experiment [2] was ≤0.01 µM. Also, the “MEC to Induce Cytokine IFN-gamma” value in experiment [3] was 1.1 µM.

With `CCCCCCCCCCCCCC(=O)NCCC[C@@H](COCC)n1cnc2c(N)nc3ccccc3c21` [Example 2, N-[(4S)-4-(4-aminoimidazo[4,5-c]quinolin-1-yl)-5-ethoxy-pentyl]tetradecanamide], the “MEC to Induce Cytokine IFN-alpha” value in experiment [1] was ≤0.01 µM. In addition, in experiment [2], the “MEC to Induce Cytokine TNF-alpha” value is ≤0.01 µM. Besides, in experiment [3], the “MEC to Induce Cytokine IFN-gamma” value worked out at 0.04 µM.

As to `CCCCCCCCCC(=O)NCCC[C@@H](COCC)n1cnc2c(N)nc3ccccc3c21` [Example 3, N-[(4S)-4-(4-aminoimidazo[4,5-c]quinolin-1-yl)-5-ethoxy-pentyl]decanamide], the “MEC to Induce Cytokine IFN-alpha” value in experiment [1] is ≤0.01 µM. The “MEC to Induce Cytokine TNF-alpha” value in experiment [2] was ≤0.01 µM. The “MEC to Induce Cytokine IFN-gamma” value in experiment [3] was found to be 0.04 µM.

The values above are taken from patent publication US11306083B2, “Amide substituted imidazo[4,5-C]quinoline compounds with a branched chain linking group for use as an immune response modifier” (3M INNOVATIVE PROPERTIES COMPANY, priority 2017, dated 2022).
